Values joined by “and” are separate entries in the source; they are usually repeats but may differ in a detail not shown here. Identical values can stand only once. Like-named read-outs stand apart in the source and are kept apart here.
Key:
[1] = tested on: 2.2.15 cells (HepG2 cells transformed with hepatitis virion); assay: Toxicity analysis by uptake of neutral red dye in 2.2.15 cell cultures
Description: (§1) Toxicity analyses were performed in order to assess whether any observed antiviral effects were due to a general effect on cell viability. The method used was based on the uptake of neutral red dye, a standard and widely used assay for cell viability in a variety of virus-host systems, including HSV (herpes simplex virus) and HIV. The test compounds were used in the form of 40 mM stock solutions in DMSO (frozen on dry ice). Daily aliquots of the test samples were made and frozen at −20° C. so that each individual aliquot would be subjected to a single freeze-thaw cycle. The daily test aliquots were thawed, suspended into culture medium at room temperature and immediately added to the cell cultures. The compounds were tested at 0.01 to 10 μM for antiviral activity. The compounds were tested for toxicity at concentrations from 1 to 300 μM.
(§2) Toxicity analyses were performed in 96-well flat bottomed tissue culture plates. Cells for the toxicity analyses were cultured and treated with test compounds with the same schedule as used for the antiviral evaluations. Each compound was tested at 4 concentrations, each in triplicate cultures. Uptake of neutral red dye was used to determine the relative level of toxicity. The absorbance of internalized dye at […] (A510) was used for the quantitative analysis. Values are presented as a percentage of the average A510 values (± standard deviations) in 9 separate cultures of untreated cells maintained on the same 96-well plate as the test compounds.

Hepatitis B virus [2] = assay: Inhibition of HBV replication in transfected HepG-2 (2.2.15) cells (HBV virion DNA and replicative intermediates, blot hybridization); type: cell-based; conditions: for Selectivity Index IC50/EC50 RI: cytotoxicity IC50 / RI EC50; for Selectivity Index IC50/EC50 Virion: cytotoxicity IC50 / virion EC50; for Inhibition of HBV replication (depression of HBV virion DNA and HBV RI), in words: 2.2.15 cells; for Selectivity Index IC50/EC90 RI: cytotoxicity IC50 / RI EC90
Description: The assay used herein to evaluate the ability of the disclosed compounds to inhibit the replication of HBV is described in detail in Korba and Gerin, Antiviral Res. 19: 55-70 (1992). […] The toxicity and anti-HBV activity of (−)-β-L-2-hydroxymethyl-5-(5-fluorocytosin-1-yl)-1,3-oxathiolane ((−)-β-L-FTC) and β-D-2′,3′-dideoxycytidine (β-D-ddC) are included as controls. The other compounds disclosed herein can be evaluated similarly.
The antiviral evaluations were performed on two separate passages of cells, two cultures per passage (4 cultures total). All wells, in all plates, were seeded at the same density and at the same time.
(Korba and Gerin, Antiviral Res. 19: 55-70, 1992). The levels of integrated HBV DNA in each cellular DNA preparation (which remain constant on a per cell basis in these experiments) were used to calculate the levels of intracellular HBV DNA forms, thereby eliminating technical variations inherent in the blot hybridization assays.
as §1

[3] = Toxicity analysis by uptake of neutral red dye in 2.2.15 cell cultures; conditions: human
Description: as §1, §2

human DNA polymerase β = human DNA polymerase β (Homo sapiens, UniProt P06746); assay: Inhibition of human DNA polymerase β by triphosphates; type: biochemical; conditions: read-out: DNA Pol β Ki
human DNA polymerase α = target: T1, human DNA polymerase α (Homo sapiens, UniProt P09884); assay: Inhibition of human DNA polymerase α by triphosphates; type: biochemical; conditions: read-out: DNA Pol α Ki
T1 sequence (P09884 1-1462): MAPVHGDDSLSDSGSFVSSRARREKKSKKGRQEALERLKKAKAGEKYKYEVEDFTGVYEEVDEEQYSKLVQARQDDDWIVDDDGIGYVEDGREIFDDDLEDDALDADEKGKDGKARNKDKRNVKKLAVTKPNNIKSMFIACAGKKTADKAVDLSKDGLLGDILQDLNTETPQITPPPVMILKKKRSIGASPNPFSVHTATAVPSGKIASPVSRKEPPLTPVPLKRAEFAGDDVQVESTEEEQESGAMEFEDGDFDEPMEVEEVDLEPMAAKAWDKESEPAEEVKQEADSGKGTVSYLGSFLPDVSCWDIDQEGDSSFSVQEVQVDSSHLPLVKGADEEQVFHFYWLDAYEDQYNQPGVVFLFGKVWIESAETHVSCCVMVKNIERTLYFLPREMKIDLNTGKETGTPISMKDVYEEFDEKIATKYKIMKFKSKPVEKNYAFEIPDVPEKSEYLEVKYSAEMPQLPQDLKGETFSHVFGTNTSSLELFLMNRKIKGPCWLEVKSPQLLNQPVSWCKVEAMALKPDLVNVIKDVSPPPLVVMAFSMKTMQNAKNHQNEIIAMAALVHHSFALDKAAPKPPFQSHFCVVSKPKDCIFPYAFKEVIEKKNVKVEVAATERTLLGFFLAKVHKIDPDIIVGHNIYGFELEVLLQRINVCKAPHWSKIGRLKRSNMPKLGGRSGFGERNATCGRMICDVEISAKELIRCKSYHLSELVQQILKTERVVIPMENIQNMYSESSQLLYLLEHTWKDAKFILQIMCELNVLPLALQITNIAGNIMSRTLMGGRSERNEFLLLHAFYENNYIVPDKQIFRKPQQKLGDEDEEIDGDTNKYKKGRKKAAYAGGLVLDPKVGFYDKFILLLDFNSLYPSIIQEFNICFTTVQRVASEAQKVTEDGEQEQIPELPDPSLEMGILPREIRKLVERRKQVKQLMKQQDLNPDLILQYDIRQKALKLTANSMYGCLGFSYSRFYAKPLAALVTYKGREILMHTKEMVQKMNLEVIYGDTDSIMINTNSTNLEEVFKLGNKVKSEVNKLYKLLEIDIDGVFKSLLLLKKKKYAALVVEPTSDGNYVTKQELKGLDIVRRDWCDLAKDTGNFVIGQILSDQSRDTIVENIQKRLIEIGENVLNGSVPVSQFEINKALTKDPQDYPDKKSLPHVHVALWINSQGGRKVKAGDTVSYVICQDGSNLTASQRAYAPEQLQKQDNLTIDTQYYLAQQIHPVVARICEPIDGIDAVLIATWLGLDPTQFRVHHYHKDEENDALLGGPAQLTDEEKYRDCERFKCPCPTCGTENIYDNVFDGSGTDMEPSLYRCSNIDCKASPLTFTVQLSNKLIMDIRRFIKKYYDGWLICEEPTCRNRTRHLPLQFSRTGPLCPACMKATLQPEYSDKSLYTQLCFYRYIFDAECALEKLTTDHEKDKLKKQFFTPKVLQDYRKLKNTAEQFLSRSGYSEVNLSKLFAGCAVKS

[4] = target: woodchuck hepatitis virus DNA polymerase (Woodchuck hepatitis B virus, UniProt P03160); assay: Inhibition of woodchuck hepatitis virus DNA polymerase by triphosphates; type: biochemical; conditions: read-out: WHB DNA Pol IC50
Sequence of woodchuck hepatitis virus DNA polymerase (P03160 whole entry): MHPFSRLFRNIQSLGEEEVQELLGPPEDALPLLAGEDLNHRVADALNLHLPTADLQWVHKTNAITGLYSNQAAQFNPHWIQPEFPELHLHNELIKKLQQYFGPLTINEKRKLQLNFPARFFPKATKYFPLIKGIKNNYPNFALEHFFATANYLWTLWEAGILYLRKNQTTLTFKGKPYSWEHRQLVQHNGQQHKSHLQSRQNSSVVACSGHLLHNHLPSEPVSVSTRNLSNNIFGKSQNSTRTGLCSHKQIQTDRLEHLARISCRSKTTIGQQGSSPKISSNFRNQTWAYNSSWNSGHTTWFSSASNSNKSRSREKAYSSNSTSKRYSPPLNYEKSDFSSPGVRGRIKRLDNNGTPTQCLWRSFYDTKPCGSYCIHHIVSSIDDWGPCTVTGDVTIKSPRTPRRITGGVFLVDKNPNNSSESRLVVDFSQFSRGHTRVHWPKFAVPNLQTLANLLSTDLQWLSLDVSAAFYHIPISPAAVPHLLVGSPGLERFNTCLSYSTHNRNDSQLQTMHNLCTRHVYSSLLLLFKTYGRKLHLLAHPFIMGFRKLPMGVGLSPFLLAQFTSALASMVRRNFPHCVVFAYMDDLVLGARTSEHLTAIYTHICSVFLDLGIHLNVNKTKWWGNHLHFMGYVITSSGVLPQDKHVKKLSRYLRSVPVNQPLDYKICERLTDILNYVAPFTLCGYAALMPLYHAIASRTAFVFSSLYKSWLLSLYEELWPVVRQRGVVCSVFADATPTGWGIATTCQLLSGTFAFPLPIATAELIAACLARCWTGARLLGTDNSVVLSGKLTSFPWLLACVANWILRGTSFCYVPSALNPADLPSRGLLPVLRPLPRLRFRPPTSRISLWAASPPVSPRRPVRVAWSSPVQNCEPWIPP

[5] = tested on: 2.2.15 cells (HepG2 cells transformed with hepatitis virion); conditions: typically observed, Korba and Gerin 1992; read-out: Concentration giving a 2-fold reduction in dye uptake; cited from earlier work
Hepatitis B virus [6] = conditions: previous studies, Korba and Gerin 1992; cited from earlier work
[7] = read-out: Cytotoxity IC50 ± SD, Table 1, neutral red dye uptake, 2.2.15 cells

Q: With `CC(=O)SCCOP(=O)(OCCSC(C)=O)OC[C@@H]1O[C@H](n2cc(C)c(=O)[nH]c2=O)C[C@H]1N=[N+]=[N-]` [Bis (Sate) β-L-AZTMP] as the molecule, how does the IC50 ([1]; read-out: Cytotoxicity IC50, Table 2, Hep G-2 (2.2.15) cells) read?
A: 200 µM

Q: What about the “Selectivity Index IC50/EC50 RI” value (Hepatitis B virus [2]; Table 2) of the same molecule?
A: 25

Q: And the “Selectivity Index IC50/EC50 Virion” value (Hepatitis B virus [2]; Table 2)?
A: 27

Q: And the EC50 (Hepatitis B virus [2]; Table 2, extracellular DNA, transfected Hep G-2 (2.2.15) cells, read-out: HBV Virion EC50)?
A: 7.5 µM

Q: And the EC50 (Hepatitis B virus [2]; Table 2, replicative intermediates (intracellular DNA), transfected Hep G-2 (2.2.15) cells, read-out: HBV RI EC50)?
A: 8 µM

Q: What does the source list for `Nc1nc(=O)n([C@H]2O[C@@H](CO)C[C@H]2F)cc1F` [2′-F-β-L-5FDDC, 1-(2-Fluoro-2,3-dideoxy-β-L-threo-pentofuranosyl)-5-fluorocytosine]?
A: IC50 [3]: 210 µM; EC50 (Hepatitis B virus [2]; Hepatitis B virus, HepG2 2.2.15, read-out: HBV RI EC50): 5 µM; EC50 (Hepatitis B virus [2]; Hepatitis B virus, HepG2 2.2.15, read-out: HBV Virion EC50): 1.7 µM; Selectivity Index IC50/EC50 RI (Hepatitis B virus [2]; Table 2): 42; Selectivity Index IC50/EC50 Virion (Hepatitis B virus [2]; Table 2): 124

Q: For `Nc1ccn([C@@H]2CS[C@H](COP(=O)(O)OP(=O)(O)OP(=O)(O)O)O2)c(=O)n1` [Compound 3-TC-TP, reference compound], which Ki (human DNA polymerase β) is on record?
A: > 100 µM

Q: What about the Ki (human DNA polymerase α) of the same molecule?
A: > 100 µM

Q: And the IC50 [4]?
A: 1 µM

Q: Which results are given for `Cc1cn([C@@H]2C[C@@H](N=[N+]=[N-])[C@H](COP(=O)(O)OP(=O)(O)OP(=O)(O)O)O2)c(=O)[nH]c1=O` [β-L-AZTPP]?
A: Ki (human DNA polymerase β): > 100 µM; Ki (human DNA polymerase α): > 100 µM; IC50 [4]: 0.2 µM

Q: Which results are given for `Nc1nc(=O)n([C@@H]2CC[C@H](COP(=O)(O)OP(=O)(O)OP(=O)(O)O)O2)cc1F` [β-L-5FDDCTP]?
A: Ki (human DNA polymerase β): > 100 µM; Ki (human DNA polymerase α): > 100 µM; IC50 [4]: 2 µM

Q: For `Nc1ccn([C@H]2CC[C@@H](CO)O2)c(=O)n1` [β-D-DDC, β-D-2′,3′-dideoxycytidine, reference compound], which IC50 [1, 7] is on record?
A: 219 µM

Q: And the IC50 ([3]; Cytotoxity IC50 ± SD, Table 1, neutral red dye uptake, 2.2.15 cells)?
A: 216 ± 22 µM

Q: What about the IC50 [5] of the same molecule?
A: 150 to 190 µM

Q: And the “Concentration giving a 90% depression of HBV RI” value (Hepatitis B virus [6])?
A: 9 to 12 µM

Q: And the “Inhibition of HBV replication (depression of HBV virion DNA and HBV RI), in words” value (Hepatitis B virus [2])?
A: significant depressions of HBV DNA replication

Q: What about the EC90 (Hepatitis B virus [2]; Hepatitis B virus, HepG2 2.2.15, read-out: HBV RI EC90 ± SD, Table 1, replicative intermediates (intracellular DNA), transfected HEPG-2 (2.2.15) cells) of the same molecule?
A: 11 ± 2 µM

Q: What about the EC50 (Hepatitis B virus [2]; Hepatitis B virus, HepG2 2.2.15, read-out: HBV viron EC50 ± SD, Table 1, extracellular DNA, transfected HEPG-2 (2.2.15) cells) of the same molecule?
A: 1.5 ± 0.7 µM

Q: What about the “Selectivity Index IC50/EC90 RI” value (Hepatitis B virus [2]; Table 1) of the same molecule?
A: 20 and 18

Q: What about the EC90 (Hepatitis B virus [2]; read-out: HBV RI EC90 ± SD, Table 1, replicative intermediates (intracellular DNA), transfected HEPG-2 (2.2.15) cells) of the same molecule?
A: 12 ± 2.4 µM

Q: What about the EC50 (Hepatitis B virus [2]; read-out: HBV viron EC50 ± SD, Table 1, extracellular DNA, transfected HEPG-2 (2.2.15) cells) of the same molecule?
A: 1.3 µM

Q: Which IC50 [1, 7] does the source give for `Nc1ccn([C@@H]2CC[C@H](CO)O2)c(=O)n1` [β-L-DDC, 2′,3′-Dideoxy-β-L-cytidine] here?
A: 493 ± 64 µM

Q: And the “Inhibition of HBV replication (depression of HBV virion DNA and HBV RI), in words” value (Hepatitis B virus [2])?
A: potent inhibitors of HBV replication

Q: And the “Selectivity Index IC50/EC90 RI” value (Hepatitis B virus [2]; Table 1)?
A: 274

Q: What about the “Selectivity Index IC50/EC90 Virion” value (Hepatitis B virus [2]; Table 1, cytotoxicity IC50 / virion EC90) of the same molecule?
A: 448

Q: And the EC50 (Hepatitis B virus [2]; Table 1, extracellular DNA, transfected HEPG-2 (2.2.15) cells, read-out: HBV viron EC50 ± SD)?
A: 0.033 ± 0.003 µM

Q: And the EC90 (Hepatitis B virus [2]; Table 1, extracellular DNA, transfected HEPG-2 (2.2.15) cells, read-out: HBV viron EC90 ± SD)?
A: 1.1 ± 0.2 µM

Q: And the EC50 (Hepatitis B virus [2]; Table 1, replicative intermediates (intracellular DNA), transfected HEPG-2 (2.2.15) cells, read-out: HBV RI EC50 ± SD)?
A: 0.107 ± 0.012 µM

Q: And the EC90 (Hepatitis B virus [2]; Table 1, replicative intermediates (intracellular DNA), transfected HEPG-2 (2.2.15) cells, read-out: HBV RI EC90 ± SD)?
A: 1.8 ± 0.2 µM

Reference: patent US7468357B2, “Nucleosides with anti-hepatitis B virus activity” (Emory University, priority 1994, dated 2008)
